Laboratory results taken from patent US10150787B2, “TC-PTP inhibitors as APC activators for immunotherapy” (THE ROYAL INSTITUTION FOR THE ADVANCEMENT OF LEARNING / …, priority 2014, dated 2018).

Columns and labels:
[1] = target: TC-PTP (Homo sapiens (Human), UniProt P17706); assay: Enzyme Assay for TC-PTP; format: biochemical; conditions: inhibition of TC-PTP enzymatic activity
Protocol: 1) Enzyme Assay for TC-PTP
• Assay buffer: 50 mM Bis-Tris (pH=6.3) • 2 mM EDTA • 5 mM N,N′-dimethyl-N,N′-bis(mercaptoacetyl)hydrazine (DMH) • Substrate: 10 mM fluorescein diphosphate (FOP) store at −20° C. (also can use 10 mM DiFMUP) • Enzyme dilution buffer: 50 mM Bis-Tris (pH=6.3) • 2 mM EDTA • 5 mM DMH • 20% (v/v) glycerol • 0.01% Triton X-100
The assay was carried out at room temperature in 96 well plates. The reaction mixture in 170 μl contained 50 mM Bis-Tris (pH=6.3), 2 mM EDTA, 5 mM N,N′-dimethyl-N,N′bis(mercaptoacetyl)hydrazine (DMH) and 10 μM fluorescein diphosphare (FDP) or 6,8-difluoro-4-methylumbelliferyl phosphate (DiFMUP). 10 μl of 10 concentrations (serial dilution) of the test compound (inhibitor) dissolved in DMSO or DMSO alone for control was added to each well and the plate was mixed for 2 min. The reaction was initiated by adding 20 μl of diluted TC-PTP (50 nM for FDP, 0.5 nM for DiFMUP in 50 mM Bis/Tris (pH=6.3), 2 mM EDTA, 5 mM DMH, 20% glycerol and 0.01% Triton X-100. The phosphatase activity was followed by monitoring the appearance of the fluorescent product fluorescein monophosphate (FMP) or 6,8-difluoro-7-hydroxyl-4-coumarin (DiFMU) continuously for 15-30 min, using the Spectromax Gemini fluorescent plate reader ([…]) with excitation of 440 nm and emission at 530 nm (cutoff filter at 525 nm) for FDP and excitation at 360 nm and emission at 450 nm (cutoff filter at 435 nm) for DiFMUP. All the assays were done at least in duplicate. The initial rate of FMP or DiFMU formation is plotted against the concentration of inhibitor and the data was fitted to 4-parameter equation and the inflection point of the fit is the IC50.

[2] = test system: monocyte-derived DCs; assay: Mouse Dendritic Cell Assay (IL-12 production); format: cell-based; conditions: for % increase in IL-12 production: 24 h IL-12 production following 6 days of DC incubation and maturation in the presence of 32 μM of test compound vs vehicle-treated cells; for potency in the IL-12 release assay (in words): IL-12 release assay shown in Example 12
Protocol: Mouse bone marrow cells were flushed from the femur and tibia into RPMI (supplemented with 10% FBS, gentamicin, HEPES, non-essential amino acids) using a syringe equipped with a 23 gauge needle. Clumps were dispersed by gently passing the cell suspension several times through the syringe. Any remaining clumps of cells and debris were removed by passing cell suspension through a 70 μM nylon strainer. The suspension was centrifuged (300×g for 10 mins), the supernatant was discarded and the cells were resuspended in 5 ml of red cell lysis buffer (SIGMA). The cells were counted and mouse monocytes cells (CD11b+) were isolated according to the instructions for positive selection of CD11 b cells (Stemcell technologies). The cells were then resuspended in RPMI media supplemented with 10% FBS, gentamicin, Hepes and non-essential aminoacids (aa) and treated with 40 ng/ml of recombinant mouse GM-CSF and IL-4 (Peprotech). Mouse monocytes were plated at 1×10^6 cells/mL. The cells were incubated for 6 days at 37° C., 5% CO2 in a humidified incubator in the presence of different concentrations of the compounds (0-32 μM). The media was changed every three days by removing half of the media from the plate and replenishing with the same volume of fresh media supplemented with cytokines and the test compounds at the same concentrations.
Immature monocyte-derived DCs may be incubated with a DC maturation cocktail containing the test compounds and incubated for an additional 24-72 hours. There are many DC maturation cocktails identified in the literature, with the “gold standard” consisting of 10 ng/ml TNF-α, 10 ng/ml IL-1β, 1000 units/ml IL-6 and 1 μg/mL PGE2. Alternatively, MPLA (10 μg/mL) and IFNγ (500 U/ml, Peprotech, for clinical research) has also been used. For the data shown in Example 12, the immature monocyte-derived DCs were cultured with LPS (1 μg/mL)) for 48 hours to induce maturation. Test compounds were included in the maturation cocktail at concentrations varying between 1 and 32 μM.
(§1) Characteristics of the mature DCs can be determined by a number of assays including flow cytometry analysis of the surface markers expressed on DCs, the cytokine production profile of activated DCs, antigen presentation assay and in vivo experiments to assess the DC-mediated antitumor response and cancer immunity.

[3] = test system: dendritic cells derived from monocytes taken from human pancreatic cancer patients; assay: Human Dendritic Cell Assay (IL-12 release); format: cell-based; conditions: DCs matured in the presence of the compound vs the same cells matured without it
Protocol: A sample of human blood was diluted with an equal volume of PBS plus 2% FBS. The diluted blood was layered on top of Lymphoprep (Stemcell technologies) being careful to minimize the mixing of the blood with Lymphoprep. The mixture was centrifuged at 800×g for 20 minutes at room temperature with brake off. If the blood had been stored for more than 2 hours, the centrifugation time was increased to 30 minutes. The upper plasma layer was then removed and discarded without disturbing the plasma-lymphoprep interface. The mononuclear cell layer (PMBC) at the plasma-lymphoprep interface was removed and retained without disturbing the erythrocyte/granulocyte pellet. The mononuclear cells were washed once with media and the CD14+ cells were isolated according to the instructions for the positive selection of CD14+ kit (Stemcell technologies). The resulting CD14+ cells were cultured in PromoCell monocyte attachment media (PromoCell). Cells were plated at 0.5×10^6 cells/cm^2 and incubated for 1 h at 5% CO2 and 37° C. in a humidified incubator. […]
as §1

[4] = test system: EG7 lymphoma cells; assay: Mouse Syngeneic Tumor Model, treated with inhibitor-activated mature dendritic cells; format: in vivo; conditions: tumor volume in mice 28 days following a single treatment of mature dendritic cells activated by the compound; Example 5 vs Example 6
Excerpt: A novel dual reporter (GFP & luciferase) MSCV based plasmid was creating by subcloning from two commercially available constructs (addgene 19360: pLenti pgk and addgene 18751: MSCV-IRES-GFP). This construct was used to generate retrovirus for infection of EG7 lymphoma cells (ATCC#CRL-2133). EG7-ova expressing cells are a commonly used model for T cell lymphoma engineered to express the ovalbumin antigen making them useful in immunological and drug discovery applications. These cells were then GFP sorted at the McGill University Life Sciences Complex flow cytometry core (BD FACscalibur) prior to subcutaneous implantation (5×10^5 cells) in syngeneic C57bl6 mice (Harlan). Tumors were allowed to establish in the mice and then were imaged ten days post implantation (Perkin Elmer IVIS100) and luminescence was quantified using IVIS software. Mice were then treated on day 10 post injection with 2×10^6 ex vivo-derived and inhibitor-treated mature dendritic cells (IP injection) (see ex vivo activation of monocyte derived DC with PTP inhibitor). Ovalbulim was added to DC cultures during maturation at a concentration of 2.5 mg/mL. Following maturation, DCs were harvested by gently resuspending with phosphate-buffered saline to dislodge any loosely attached cells. Cells were then spun down and washed twice with phosphate-buffered saline. […]

Sequence of TC-PTP (P17706 whole entry, species assumed): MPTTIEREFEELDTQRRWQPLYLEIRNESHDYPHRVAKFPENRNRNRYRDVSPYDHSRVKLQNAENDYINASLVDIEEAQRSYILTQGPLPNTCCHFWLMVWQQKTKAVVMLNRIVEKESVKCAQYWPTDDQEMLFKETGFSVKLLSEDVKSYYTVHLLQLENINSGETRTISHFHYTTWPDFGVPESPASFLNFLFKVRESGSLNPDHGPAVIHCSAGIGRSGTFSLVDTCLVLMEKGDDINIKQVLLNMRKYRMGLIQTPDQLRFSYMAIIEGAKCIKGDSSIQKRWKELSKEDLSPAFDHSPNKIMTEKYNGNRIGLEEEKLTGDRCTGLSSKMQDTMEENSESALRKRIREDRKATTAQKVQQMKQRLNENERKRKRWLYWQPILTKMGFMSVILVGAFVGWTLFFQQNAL

N#Cc1ccc2cc(Br)c(C(F)(F)P(=O)(O)O)cc2c1 [Ex. 10, [(3-Bromo-7-Cyano-2-Naphthyl)(Difluoro)Methyl]Phosphonate]
IC50 [1]: 490 nM | % increase in IL-12 production [2]: 42%

CCOC(=O)c1cc2cc(Br)c(C(F)(F)P(=O)(O)O)cc2s1 [Ex. 7, ((5-Bromo-2-(Ethoxycarbonyl)Benzo[b]Thiophen-6-yl)Difluoromethyl)Phosphonate]
IC50 [1]: 740 nM | % increase in IL-12 production [2]: 171% | release of IL-12 [3]: greater release of IL-12

COC(=O)c1cc2cc(Br)c(C(F)(F)P(=O)(O)O)cc2s1 [Ex. 8, ((5-Bromo-2-(Methoxycarbonyl)Benzo[b]Thiophen-6-yl)Difluoromethyl)Phosphonate]
IC50 [1]: 2900 nM

N#Cc1cc2cc(C(F)(F)P(=O)(O)O)c(Br)cc2s1 [Ex. 4, ((6-Bromo-2-Cyanobenzo[b]Thiophen-5-yl)Difluoromethyl)Phosphonate]
IC50 [1]: 1200 nM | % increase in IL-12 production [2]: 85%

O=C(O)c1cc2cc(C(F)(F)P(=O)(O)O)c(Br)cc2s1 [Ex. 2, 6-Bromo-5-(Difluoro(Phosphonato)Methyl)Benzo[b]Thiophene-2-Carboxylate]
IC50 [1]: 260 nM | % increase in IL-12 production [2]: 143%

N#CCc1cc2cc(C(F)(F)P(=O)(O)O)c(Br)cc2s1 [Ex. 6, ((6-Bromo-2-(Cyanomethyl)Benzo[b]Thiophen-5-yl)Difluoromethyl)Phosphonate]
IC50 [1]: 370 nM | % increase in IL-12 production [2]: 60% | potency in the IL-12 release assay (in words) [2]: less potent

O=C(O)c1cc2cc(Br)c(C(F)(F)P(=O)(O)O)cc2s1 [Ex. 9, ((5-Bromo-2-(Carboxy)Benzo[b]Thiophen-6-yl)Difluoromethyl)Phosphonate]
IC50 [1]: 170 nM

CCOC(=O)c1cc2cc(C(F)(F)P(=O)(O)O)c(Br)cc2s1 [Ex. 1, ((6-Bromo-2-(Ethoxycarbonyl)Benzo[b]Thiophen-5-yl)Difluoromethyl)Phosphonate]
IC50 [1]: 450 nM | % increase in IL-12 production [2]: 161%

NC(=O)c1cc2cc(C(F)(F)P(=O)(O)O)c(Br)cc2s1 [Ex. 3, ((6-Bromo-2-Carbamoylbenzo[b]Thiophen-5-yl)Difluoromethyl)Phosphonate]
IC50 [1]: 280 nM | % increase in IL-12 production [2]: 130%

O=P(O)(O)C(F)(F)c1cc2cc(CO)sc2cc1Br [Ex. 5, ((6-Bromo-2-(Hydroxymethyl)Benzo[b]Thiophen-5-yl)Difluoromethyl)Phosphonate]
IC50 [1]: 1500 nM | % increase in IL-12 production [2]: 144% | potency in the IL-12 release assay (in words) [2]: potent | efficacy at reducing tumor volume [4]: greater efficacy at reducing tumor volume
